Read-outs that look alike come from different tables or passages of the source.
How the values were obtained:
[1] = target: T1, recombinant human NAAA protein (Homo sapiens, UniProt Q02083); test: Fluorometric NAAA activity assay (PAMCA hydrolysis); assay type: biochemical
T1 construct: purchased R&D Systems (Shanghai, China)
T1 sequence (Q02083 29-359): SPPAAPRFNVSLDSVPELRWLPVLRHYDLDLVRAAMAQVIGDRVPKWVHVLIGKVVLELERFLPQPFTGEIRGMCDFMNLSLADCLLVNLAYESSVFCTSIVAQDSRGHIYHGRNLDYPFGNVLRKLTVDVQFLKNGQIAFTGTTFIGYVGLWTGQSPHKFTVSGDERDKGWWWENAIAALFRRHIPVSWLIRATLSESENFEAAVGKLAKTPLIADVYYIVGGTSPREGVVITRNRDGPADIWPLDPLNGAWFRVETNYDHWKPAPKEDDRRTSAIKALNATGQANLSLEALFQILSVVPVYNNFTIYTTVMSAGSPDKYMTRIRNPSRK
Experimental: (§1) Fluorometric NAAA activity measurement was used to evaluate the natural products inhibitory potency towards NAAA as previously reported with minor modifications ([West et al., 2012a]; [West et al., 2012b]). Briefly, in our initial screening, recombinant human NAAA protein was diluted in NAAA buffer (3 mM DTT, 0.1% Triton X-100, 0.05% BSA, 150 mM NaCl, pH 4.5) to 0.25 µg/ml and then 20 µL were transferred to a 96-well half-volume black plate followed by the addition of 2 µL of DMSO-diluted compounds at a final concentration of 50 µM. After shaking for 10 min on a shaking plate, 28 µL of the N-(4-methylcoumarin)-palmitamide (PAMCA) substrate in assay buffer (final concentration: 25 µM) were added, and the reaction was allowed to proceed at 37 °C for 30 min, then enzyme activity was monitored at a wavelength of 460 nm (excitation wavelength: 360 nm) on a multimode reader (Mithras LB 943, Berthold, Germany). Compounds showing > 50% inhibition were subjected to a series of two-fold dilutions for IC50 testing.
Although several compounds have been discovered as NAAA inhibitors, reports on natural derivatives are limited. Here, we constructed a small library of 465 natural compounds consisting of alkaloids, flavonoids, coumarins, terpenoids, polyacetylenes, and aliphatics for activity screening. First, we established a high-throughput screening system for NAAA inhibitors using the fluorogenic compound N-(4-methyl coumarin) palmitamide (PAMCA) as hydrolyzed substrate ([West et al., 2012b]). PAMCA was metabolized to the fluorescent 7-amino-4-methyl coumarin (AMC) and palmitic acid by NAAA at pH 4.5 ( Figure 1A ). […] To further confirm the effectiveness of the screening system, another two reported potent NAAA inhibitors, F96 and AM9053, were tested.

[2] = tested on: LPS-induced BV-2 microglial cells; test: Nitrite production in LPS-induced BV-2 cells (Griess reagent); assay type: cell-based
Experimental: (§2) The microglia cell line BV-2 was cultured in DMEM medium containing 10% fetal bovine serum and antibiotics (100 U/ml penicillin, 100 µg/ml streptomycin) and maintained in a humidified 5% CO2 incubator at 37°C. For the experiment, cells were seeded overnight into a 24-well plate for the cytokine assay or into 100-mm dishes for NAE extraction and quantification. The next day, the cells were incubated with fresh culture medium containing the indicated concentration of atractylodin for 0.5 h and following lipopolysaccharide (LPS) treatment (1 μg/ml). Cells incubated with vehicle only (DMSO, 0.1%) were used as control.
The concentration of nitrite in the culture medium was determined using a Griess reagent kit that reflected the amount of NO released by cultured cells. Culture supernatants (75 μl) were reacted with an equal volume of Griess reagent kit for 30 min at room temperature, and the absorbance of the diazonium compound at a wavelength of 560 nm was measured.
The cytotoxicity of the NAAA inhibitors on BV-2 cells was assessed using CCK-8. […] NAAA is highly expressed in immune cells, including tissue macrophages, monocytes, and microglia. […] The concentrations of nitrite were monitored using the Griess reagent kit.

LPS-induced BV-2 cells [3] = test: Pro-inflammatory cytokine release in LPS-induced BV-2 cells (ELISA); assay type: cell-based; conditions: culture supernatant
Experimental: as §2
LPS was used to activate BV-2 cells to further assess the anti-inflammatory effects of atractylodin. […] Moreover, the ability to inhibit these inflammatory factors was stronger than the positive control drug dexamethasone (Dex) at a concentration of 10 µM ( Figure 6 ).

LPS-induced BV-2 cells [4] = test: Cellular PEA and OEA levels in LPS-induced BV-2 cells (HPLC-MS/MS); assay type: cell-based; conditions: 10 μM, LPS 6 h, compared to LPS-treated control
Experimental: as §2
FAEs were extracted from BV-2 cells as previously reported ([Yang et al., 2015]). […] An ABI 3200 Q-Trap mass spectrometer (Applied Biosystems, Concord, Canada equipped with a 1100-LC system (Agilent, Shanghai, China) was used in this experiment. The precursor/product ion transitions in multiple reaction monitoring mode (MRM) were used for mass analysis and quantitation. The molecular ions were monitored at m/z 300.2/62.0 for PEA, m/z 326.1/62.0 for OEA, m/z 348.00/62.00 for AEA, m/z 379.10/287.10 for 2-AG, and m/z 313.1/62.0 for C17:1 FAE.
To further investigate the contribution of endogenous fatty acid ethanolamide to the anti-inflammatory effect of atractylodin, cellular PEA and OEA levels were measured by HPLC-MS/MS analysis. […]

NAAA = conditions: read-out: IC50, NAAA inhibition (reported), cited from earlier work
[5] = substrate: CCCCCCCCCCCCCCCC(=O)Nc1ccc2c(C)cc(=O)oc2c1; test: Fluorometric NAAA activity assay (PAMCA hydrolysis); assay type: biochemical, human; conditions: other: pH 4.5, 37.0 °C
Experimental: as §1
Although several compounds have been discovered as NAAA inhibitors, reports on natural derivatives are limited. Here, we constructed a small library of 465 natural compounds consisting of alkaloids, flavonoids, coumarins, terpenoids, polyacetylenes, and aliphatics for activity screening. […]

[6] = recombinant human NAAA, PAMCA 25 µM, pH 4.5, 37 °C 30 min, read-out: IC50, NAAA inhibition

COc1ccc2cc1Oc1ccc(cc1)CC1c3cc(c(OC)cc3CCN1C)Oc1c(OC)c(OC)cc3c1C(C2)N(C)CC3 [D-tetrandrine]
IC50 [1, 6]: 52.9 ± 3.05 µM

O=c1cc(-c2ccc(O)c(-c3c(O)cc(O)c4c(=O)cc(-c5ccc(O)cc5)oc34)c2)oc2cc(O)cc(O)c12 [amentoflavone]
IC50 [1, 6]: 37.8 ± 4.04 µM

COc1cc(C[C@H](C)[C@H](C)Cc2ccc3c(c2)OCO3)ccc1O [anwuligan]
IC50 [1, 6]: 23.8 ± 1.06 µM

C/C=C/C#CC#C/C=C/c1ccco1 [atractylodin]
IC50 [1]: 2.81 µM | time course of NAAA inhibition (pre-incubation with hNAAA) [1]: rapid and unaffected by longer pre-incubation | mechanism of NAAA inhibition (Lineweaver-Burk plot) ([1]; atractylodin 3 µM): competitive | NAAA activity after dialysis of the NAAA-inhibitor mixture ([1]; dialysis in PBS buffer): fully recovered | decrease of LPS-induced nitrite production ([2]; 10 µM, 30 min pre-incubation, LPS 24 h, compared with vehicle group): 68.21% | inhibition of nitrite generation ([2]; 1–10 µM, LPS-induced BV-2 cells): in a dose-dependent manner | inhibition of IL-1β production (LPS-induced BV-2 cells [3]): in a dose-dependent manner | inhibition of IL-6 production (LPS-induced BV-2 cells [3]): in a dose-dependent manner | inhibition of TNF-α production (LPS-induced BV-2 cells [3]): in a dose-dependent manner | cellular OEA level (LPS-induced BV-2 cells [4]): significantly increased | cellular PEA level (LPS-induced BV-2 cells [4]): significantly increased

CC(=O)Oc1cccc2c1C(=O)c1c(OC(C)=O)cc(C(=O)O)cc1C2=O [diacerein]
IC50 (NAAA; ref Petrosino et al., 2015): 7.2 µM

C\C(C=C=C1C(C)(C)C[C@H](O)C[C@@]1(C)O)=C/C=C/C(C)=C/C=C/C=C(C)/C=C/C=C(\C)C(=O)C[C@@]12O[C@]1(C)C[C@@H](O)CC2(C)C [fucoxanthinol]
IC50 (NAAA; ref Jin et al., 2020): 12.8 µM

c1cc2c(cc1[C@H]1OC[C@H]3[C@@H]1CO[C@@H]3c1ccc3c(c1)OCO3)OCO2 [sesamin]
IC50 [1, 6]: 30.2 ± 2.09 µM

B1: recombinant human NAAA protein (Homo sapiens) (protein)
chain: T1 sequence (Q02083 29-359)
notes: purchased R&D Systems (Shanghai, China)
Km [5]: 17.92 ± 3.54 µM

Reference: publication PMC7565389, “Natural Potent NAAA Inhibitor Atractylodin Counteracts LPS-Induced Microglial Activation” (Frontiers in Pharmacology, 2020)
